Data on 20 compounds can be found in patent US8273769B2, “Phenoxy acetic acid derivatives” (Merck Serono SA, priority 2009, dated 2012).

Broadly, the IC50 is the concentration needed to halve the response being measured. The term EC50 denotes the concentration needed to bring the measured effect to its halfway point. The term Emax denotes the maximal effect, on the per cent scale that the assay sets.

Assay [1] deals with T1, CRTH2 (Homo sapiens, UniProt Q9Y5Y4).
T1 sequence (Q9Y5Y4 1-395): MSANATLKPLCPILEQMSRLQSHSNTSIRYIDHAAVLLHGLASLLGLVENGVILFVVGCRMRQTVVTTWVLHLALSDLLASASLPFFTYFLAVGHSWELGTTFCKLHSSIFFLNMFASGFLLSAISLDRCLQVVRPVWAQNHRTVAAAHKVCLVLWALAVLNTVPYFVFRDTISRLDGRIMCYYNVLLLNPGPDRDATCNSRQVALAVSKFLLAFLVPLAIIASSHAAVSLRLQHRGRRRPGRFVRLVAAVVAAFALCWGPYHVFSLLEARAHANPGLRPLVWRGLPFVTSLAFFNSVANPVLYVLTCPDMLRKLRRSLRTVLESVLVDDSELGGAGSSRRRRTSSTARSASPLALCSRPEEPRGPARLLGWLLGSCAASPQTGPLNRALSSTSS
As to the kind of experiment: Radioligand binding Scintillation Proximity Assay ([3H]PGD2, hCRTH2-CHO cell membranes). Also on record: host or cells: CHO cells. The conditions noted are these: 1.5 nM [3H]PGD2, hCRTH2-CHO cell membranes, SPA. The method, boiled down:
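SPA competition binding at room temperature, 90 min with agitation: 1.5 nM [3H]PGD2, 10-50 μg/ml hCRTH2-CHO membrane protein, WGA SPA beads, HEPES pH 7.4 with 10 mM MnCl2, 1% DMSO. Non-specific binding defined with 10 μM PGD2; scintillation counting.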

Assay [2] deals with T1, CRTH2. As to the kind of experiment: Cellular Dielectric Spectroscopy (CHO-CRTH2 cells). Format: cell-based. Also on record: expressed in transfected cells; host or cells: CHO-CRTH2 cells. To be noted: for IC50: antagonist mode, fixed concentration of PGD2 (EC80); for EC50 / Emax: partial agonists, agonist activity without PGD2. The method, then:
Cellular Dielectric Spectroscopy (CDS) is a label-free technology based on the measurement of complex impedance changes (delta Z or dZ). Impedance (Z) is related to the ratio of voltage to current as described by Ohm's law (Z=V/I). In order to measure the changes in impedance that occur in response to receptor stimulation, mammalian cells are seeded onto a custom 96-well microliter plate that contains electrodes at the bottom of each well. Key contributors to the impedance measurements are changes in cell-substrate adherence, changes in cell shape and volume, and changes in cell-cell interactions. These factors individually or collectively affect the flow of current, influencing the magnitude and characteristics of the signal measured. G-protein coupled receptors ligand-induced activity can be measured using this technology and specific G protein coupling can be identified. Activities of reference agonist and antagonist molecules of CRTH2 have been measured using this assay and similar results were obtained compared to different functional assays.
CHO-CRTH2 cells are cultured in HAM's F12 (Lonza, Switzerland) supplemented with 10% foetal calf serum (PAA, Australia) and 400 μg/ml Geneticin. 100000 cells/well are seeded in standard 96W Microplates (MDS Analytical Technologies) and incubated at 37° C. in 5% CO2 for 24 hours. Cells are washed twice with 135 μl of cell key buffer (Hank's Balanced Salt Solution 1× (HBSS) (Invitrogen) supplemented with 10 mM HEPES pH 7.4 in presence of 1% DMSO). For EC50 determination. 15 μl of increasing concentration of Compounds of Formula (I) diluted in cell key buffer are added to the cells and agonist activity is then recorded for 25 minutes. […] Results are expressed as the amplitude between the highest and the lowest signal produced (max-min). Basal and maximum activities are measured, respectively in absence or presence of PGD2 (EC80).

The target of assay [3] is T1, CRTH2. As to the kind of experiment: [35S]GTPγS binding assay (CHO-CRTH2 cell membranes). Further details: expressed in transfected cells; host or cells: CHO-CRTH2 cells. Format: biochemical. The conditions noted are these: for IC50: antagonist mode, fixed concentration of PGD2 (EC80); for Emax: inverse agonists, 100% of Emax = activity with 1 μM PGD2. The method, then:
Adherent CHO cells expressing hCRTH2 (Euroscreen, Belgium) were cultured in 225 cm^2 cell culture flasks (Corning, USA) in 30 ml of medium. After two rinses of phosphate buffered saline (PBS), cells were harvested in 10 ml of PBS containing 1 mM EDTA, centrifuged at 500×g for 5 min at 4° C. and frozen at −80° C. The pellet was re-suspended in 50 mM Tris-HCl, pH 7.4, 2 mM EDTA, 250 mM Sucrose, containing protease inhibitor cocktail tablets, (Complete EDTA-free, Roche, Germany) and incubated 30 min at 4° C. Cells were disrupted by nitrogen cavitation (Parr Instruments, USA) at 4° C. (800 p.s.i. for 30 min), and centrifuged at 500×g for 10 min at 4° C. Pellet containing nuclei and cellular debris was discarded and supernatant was centrifuged 60 min at 4° C. at 45000×g. Membrane pellet was re-suspended in storage buffer (10 mM HEPES/KOH pH 7.4, 1 mM EDTA, 250 mM sucrose, protease inhibitor cocktail tablets) using Dounce homogenization and frozen in liquid nitrogen, and stored at −80° C.
The [^35S]GTPγS assay measures the increase in guanine nucleotide exchange at G-proteins in cell membranes, resulting from agonist (PGD2) binding to CRTH2. This process can be monitored in vitro by incubating cell membranes containing G-proteins and CRTH2 with GDP and [^35S]GTPγS, a radiolabeled, hydrolysis-resistant analogue of GTP (see, Harrison et al., Life Sciences 74, 489-508, 2003). The addition of a Compounds of Formula (I) results in binding to CRTH2 and thus in an inhibition of agonist binding, which can be monitored as inhibition of the stimulation of GTP/GDP exchange.
Briefly, Compounds of Formula (I) are incubated in 96-well scintillating white polystyrene plates (Perkin Elmer, USA) in a final volume of 200 μl containing 20 mM HEPES/KOH pH 7.4, 3 mM MgCl2, 10 μg/ml Saponin, 5 μM GDP, 75 mM NaCl and 2% of dimethylsulphoxide (DMSO). Reaction is triggered by the addition of 5-10 μg of CHO-CRTH2 cell membranes and 0.15 nM [^35S]GTPγS. After 60 min incubation at 30° C., reaction is stopped by centrifugation at 700×g, at 4° C. for 10 minutes and supernatant is removed. The radioactivity coming from the [^35S]GTPγS bound on centrifuged cell membranes is recorded using a 1450 Micro-beta scintillation counter. For IC50 determination, increasing concentrations of compounds are incubated in presence of a fixed concentration of PGD2 (EC80). For EC50 measurements, compounds are incubated without addition of PGD2. Basal [^35S]GTPγS activity is determined without addition of any ligands or compounds. 100% [^35S]GTPγS activity is measured by the addition of 1 μM of PGD2.

As for `Cc1ccc(S(=O)(=O)N(C)C(C)C)cc1C#Cc1cc(Cl)ccc1OCC(=O)O` [Example 87, {4-chloro-2-[(5-{[isopropyl(methyl)amino]sulfonyl}-2-methylphenyl)ethynyl]phenoxy}acetic acid], the IC50 in assay [1] was found to be 6 nM; in assay [2] it was 83 nM.

Compound `Cc1ccncc1C#Cc1cc(Cl)ccc1OCC(=O)O` [Example 15, {4-chloro-2-[(4-methylpyridin-3-yl)ethynyl]phenoxy}acetic acid] registered an IC50 in assay [1] of 30 nM. Moreover, in assay [2], the 50% inhibitory concentration (IC50) stood at 74 nM, it took 53 nM to reach a half-maximal effect (EC50) and the Emax came to 46%.

Regarding `CCCS(=O)(=O)c1ccc(C)c(C#Cc2cc(C#N)ccc2OCC(=O)O)c1` [Example 40, (4-cyano-2-{[2-methyl-5-(propylsulfonyl)phenyl]ethynyl}phenoxy)acetic acid], the half-maximal inhibitory concentration (IC50) amounted to 9 nM in assay [1] and 39 nM in assay [3].

With `CCCS(=O)(=O)c1cccc(C#Cc2cc(-c3ccccc3)ccc2OCC(=O)O)c1` [Example 131, [(3-{[3-(Propylsulfonyl)phenyl]ethynyl}biphenyl-4-yl)oxy]acetic acid], the IC50 in assay [1] is 24 nM. Besides, in assay [2], the EC50 is 74 nM and the Emax stood at 68%.

In assay [1], `CCCS(=O)(=O)c1ccc(F)c(C#Cc2cc(Cl)ccc2OC(C)C(=O)O)c1` (stereo not shown) [Example 168, 2-(4-chloro-2-{[2-fluoro-5-(propylsulfonyl)phenyl]ethynyl}phenoxy)propanoic acid] had an IC50 of 3 nM. In assay [3], the IC50 is 9 nM and the Emax is -13%.

With `CCCS(=O)(=O)c1cccc(C#Cc2cc(C#N)ccc2OCC(=O)O)c1` [Example 32, (4-cyano-2-{[3-(propylsulfonyl)phenyl]ethynyl}phenoxy)acetic acid], the 50% inhibitory concentration (IC50) in assay [1] was 25 nM; in assay [3], 185 nM.

As to `CC(C)c1ccc(S(C)(=O)=O)cc1C#Cc1cc(Cl)ccc1OCC(=O)O` [Example 70, (4-chloro-2-{[2-isopropyl-5-(methylsulfonyl)phenyl]ethynyl}phenoxy)acetic acid], the IC50 in assay [1] is 7 nM; in assay [2], 21 nM.

As to `CN(C)S(=O)(=O)c1cncc(C#Cc2cc(C#N)ccc2OCC(=O)O)c1` [Example 67, [4-cyano-2-({5-[(dimethylamino)sulfonyl]pyridin-3-yl}ethynyl)phenoxy]acetic acid], the IC50 in assay [1] was 86 nM; in assay [2], 34 nM.

For the compound `Cc1ccc(S(=O)(=O)CC(C)C)cc1C#Cc1cc(Cl)ccc1OCC(=O)O` [Example 53, (4-chloro-2-{[5-(isobutylsulfonyl)-2-methylphenyl]ethynyl}phenoxy)acetic acid], the half-maximal inhibitory concentration (IC50) in assay [1] is 5 nM; in assay [2] it was 50 nM.

Turning to `CS(=O)(=O)c1cc(C#Cc2cc(Cl)ccc2OCC(=O)O)ccc1-c1ccccc1` [Example 140, (4-chloro-2-{[2-(methylsulfonyl)biphenyl-4-yl]ethynyl}phenoxy)acetic acid], the half-maximal inhibitory concentration (IC50) in assay [1] is 6 nM; in assay [3], 37 nM. Besides, the Emax in assay [3] is -11%.

Turning to `CCCS(=O)(=O)c1ccc(C)c(C#Cc2cc(Cl)ccc2OC(C)C(=O)O)c1` (stereo not shown) [Example 173, 2-(4-chloro-2-{[2-methyl-5-(propylsulfonyl)phenyl]ethynyl}phenoxy)propanoic acid], the concentration for half-maximal inhibition (IC50) in assay [1] was 1 nM; in assay [3] it was 7 nM.

For the compound `O=C(O)COc1ccc(Cl)cc1C#Cc1ccccc1Cl` [Example 4, {4-chloro-2-[(2-chlorophenyl)ethynyl]phenoxy}acetic acid], the IC50 in assay [1] came out at 15 nM; in assay [3] it was 37 nM.

As to `O=C(O)COc1ccc(Cl)cc1C#Cc1cccc(Cl)c1` [Example 3, {4-chloro-2-[(3-chlorophenyl)ethynyl]phenoxy}acetic acid], the results for the half-maximal inhibitory concentration (IC50) in assay [1] and in assay [3] were 26 nM and 105 nM, respectively.

Turning to `CC(C)Cc1ccncc1C#Cc1cc(Cl)ccc1OCC(=O)O` [Example 43, {4-chloro-2-[(4-isobutylpyridin-3-yl)ethynyl]phenoxy}acetic acid], the IC50 is 6 nM in assay [1] and 269 nM in assay [2].

On to `O=C(O)COc1ccc(Cl)cc1C#Cc1cccc(S(=O)(=O)CCO)c1` [Example 20, [4-chloro-2-({3-[(2-hydroxyethyl)sulfonyl]phenyl}ethynyl)phenoxy]acetic acid], for which the IC50 in assay [1] came out at 12 nM; in assay [3], 288 nM.

On to `Cc1ccc(S(=O)(=O)NC(C)C)cc1C#Cc1cc(Cl)ccc1OCC(=O)O` [Example 86, [4-chloro-2-({5-[(isopropylamino)sulfonyl]-2-methylphenyl}ethynyl)phenoxy]acetic acid], for which the 50% inhibitory concentration (IC50) in assay [1] came to 5 nM; in assay [2], 118 nM.

In turn, `CC(=O)Nc1ccc(C#Cc2cc(Cl)ccc2OCC(=O)O)cc1` [Example 152, (2-{[4-(acetylamino)phenyl]ethynyl}-4-chlorophenoxy)acetic acid] yielded an IC50 in assay [1] of 28 nM. For the same compound, the Emax in assay [3] is -13%.

For the compound `CC(C)c1ccc(S(C)(=O)=O)cc1C#Cc1cc(C#N)ccc1OCC(=O)O` [Example 71, (4-cyano-2-{[2-isopropyl-5-(methylsulfonyl)phenyl]ethynyl}phenoxy)acetic acid], the values for the IC50 in assay [1] and in assay [2] were 16 nM and 15 nM, respectively.

Take `Cc1ccc(S(=O)(=O)CCCO)cc1C#Cc1cc(Cl)ccc1OCC(=O)O` [Example 54, [4-chloro-2-({5-[(3-hydroxypropyl)sulfonyl]-2-methylphenyl}ethynyl)phenoxy]acetic acid]: the IC50 in assay [1] is 10 nM; in assay [2] it was 37 nM.

In assay [1], `CCCS(=O)(=O)c1cccc(C#Cc2cc(C(F)(F)F)ccc2OCC(=O)O)c1` [Example 55, [2-{[3-(propylsulfonyl)phenyl]ethynyl}-4-(trifluoromethyl)phenoxy]acetic acid] had an IC50 of 13 nM. In addition, in assay [2], the half-maximal effective concentration (EC50) was found to be 24 nM and the Emax is 62%.
